# How the values were obtained:
# Male C57BL/6 mice [1] = assay: Food intake in fasted mice after a single intraperitoneal injection (Example 1, 3 different PYY analogues); assay type: in vivo; conditions: single i.p. injection
# Description: (§1) Male C57BL/6 mice (20-30 g) were used for all mouse experiments. Mice were individually housed in IVC cages. Animals were randomised by weight and fasted overnight for 16 hrs before intraperitoneal injection at 9 am. Food intake was measured at 1, 2, 3, 4, 6, 8 and 24 hours post injection. All peptide solutions were prepared freshly the morning of the study and injected as 100 ul. All statistics are calculated using a one-way ANOVA with Dunnett's post-test or one-way ANOVA with Bonferroni post-test.
# (§2) A control of saline was used.
# Male C57BL/6 mice [2] = assay: Food intake in fasted mice, dose response experiment for PYY3-36Lys12Lauryl (Example 2); assay type: in vivo
# Description: as §1, §2
substance,measurement,setting,value
"PYY3-36Lys12Lauryl: PYY3-36 with the residue at position 12 replaced with a lysine residue coupled to a lauroyl group, SEQ ID NO: 14",overall reduction in cumulative food intake versus saline control,"Male C57BL/6 mice [1]; 120 nmol/kg, 24 hour period, fasted mice",6.1%
same,"persistence of effect on food intake compared with saline, PYY3-36 (30 nmol/kg) and PYY3-36Lys12 (60 and 120 nmol/kg)",Male C57BL/6 mice [1],most sustained effect
same,onset of food intake reduction compared with 60 nmol/kg native PYY3-36,"Male C57BL/6 mice [2]; 240 nmol/kg, mice",slower onset of food intake reduction
same,persistence of food intake reduction compared with 60 nmol/kg native PYY3-36,"Male C57BL/6 mice [2]; 240 nmol/kg, mice",greater persistence of effect
same,"food consumed in the first, second and third hour: relation to dose","Male C57BL/6 mice [2]; 60, 120 and 240 nmol/kg, single i.p. injection, 240 greater effect than 120, both greater than 60 nmol/kg",does-response relationship
same,time at which food intake (in a given time period) becomes greater than in saline control mice,"Male C57BL/6 mice [2]; single i.p. injection, PYY3-36Lys12Lauryl 60, 120, 240 nmol/kg, PYY3-36 30 nmol/kg, FIG. 5",around 6 hours

# Reference: patent publication US8263736B2, “Compounds and their effects on feeding behaviour” (Imperial Innovations Limited, priority 2006, dated 2012)
